Experimental data: patent US11078215B2, “Crystalline forms of lorlatinib maleate” (Pfizer Inc., priority 2016, dated 2021)
Where a name gives a salt, the structure may show the parent alone.

Key:
[1] = Solid-state physical stability of Form 1 API at temperature/% RH, form checked by PXRD; assay type: physicochemical; conditions: for Solid Form (accelerated stability, PXRD): API
Description: The physical stability of anhydrous lorlatinib maleate (Form 1) API was investigated at a variety of temperatures and percent relative humidities (% RH). […]

[2] = Physical stability of Form 1 in excipient mixtures and tablets at 50° C./75% RH, PXRD; assay type: physicochemical; conditions: 2 weeks
[3] = Slurry experiments, thermodynamic stability of anhydrous lorlatinib maleate (Form 1); assay type: physicochemical
Method: The thermodynamic stability of anhydrous lorlatinib maleate (Form 1) and lorlatinib maleate hydrate (Form 2) was evaluated employing slurry experiments under a range of water activity and temperature conditions. Suspensions of Form 1 were equilibrated for two weeks in acetonitrile/water and methanol/water solvent systems with water activities (Aw) in the range of 0.1 to 0.9, at three different temperatures: 5° C., room temperature and 40° C. After 2 weeks, the solids in equilibrium were isolated and solid form was evaluated by PXRD.
Even a minimal amount of water (Aw=0.1) was sufficient to cause conversion of Form 1 to Form 2.

[4] = as above; assay type: physicochemical; conditions: 2 weeks
[5] = Physical stability of Form 1 in excipient mixtures and tablets at 50° C./75% RH, PXRD; assay type: physicochemical; conditions: for Output Solid Form: 1 week
Method: Binary and tertiary mixtures of Form 1 with various excipients were stored at 50° C./75% RH and solid form changes were monitored using PXRD.

[6] = Physical stability of Form 1 drug product vs. acetic acid solvate drug product
Description: The physical stabilities of Form 1 and lorlatinib acetic acid solvate as drug product were investigated under a variety of conditions.

Stability with respect to lorlatinib maleate hydrate (Form 2) [1]: meta-stable
Solid Form (accelerated stability, PXRD) ([1]; 40° C./75% RH without desiccation, 3 months): nearly complete conversion to Form 2
Solid Form (accelerated stability, PXRD) ([1]; 75% RH, ambient temperature, 6 months, listed as Form 1): full conversion to Form 2
Solid Form (accelerated stability, PXRD) ([1]; 75% RH, ambient temperature, 6 months, listed as anhydrous lorlatinib maleate Form 1): Form 2
Solid Form (accelerated stability, PXRD) ([1]; 90% RH, ambient temperature, 6 months, listed as Form 1): full conversion to Form 2
Solid Form (accelerated stability, PXRD) ([1]; 90% RH, ambient temperature, 6 months, listed as anhydrous lorlatinib maleate Form 1): Form 2
Output Solid Form ([2]; tablet with DCP, magnesium stearate, Explotab): Form 1
Output Solid Form ([2]; tablet with DCP, magnesium stearate, Polyplasdone XL): Form 1
Output Solid Form ([2]; tablet with DCP, stearic acid, Explotab): Form 1
Output Solid Form ([2]; tablet with DCP, stearic acid, Polyplasdone XL): Form 1
Output Solid Form ([2]; tablet with mannitol, stearic acid, Polyplasdone XL): Form 1
Slurry output, solid form by PXRD ([3]; acetonitrile, Aw 0, 5° C., 2 weeks): Form 1
Slurry output, solid form by PXRD ([3]; acetonitrile, Aw 0, 40° C., 2 weeks): Form 1
Slurry output, solid form by PXRD ([3]; acetonitrile/water, Aw 0.1, 5° C., 2 weeks): Form 2
Slurry output, solid form by PXRD ([3]; acetonitrile/water, Aw 0.1, 40° C., 2 weeks): Form 2
Slurry output, solid form by PXRD ([3]; acetonitrile/water, Aw 0.1, RT, 2 weeks): Form 2
Slurry output, solid form by PXRD ([3]; acetonitrile/water, Aw 0.3, 5° C., 2 weeks): Form 2
Slurry output, solid form by PXRD ([3]; acetonitrile/water, Aw 0.3, 40° C., 2 weeks): Form 2
Slurry output, solid form by PXRD ([3]; acetonitrile/water, Aw 0.3, RT, 2 weeks): Form 2
Slurry output, solid form by PXRD ([3]; acetonitrile/water, Aw 0.5, 5° C., 2 weeks): Form 2
Slurry output, solid form by PXRD ([3]; acetonitrile/water, Aw 0.5, 40° C., 2 weeks): Form 2
Slurry output, solid form by PXRD ([3]; acetonitrile/water, Aw 0.5, RT, 2 weeks): Form 2
Slurry output, solid form by PXRD ([3]; acetonitrile/water, Aw 0.75, 5° C., 2 weeks): Form 2
Slurry output, solid form by PXRD ([3]; acetonitrile/water, Aw 0.75, 40° C., 2 weeks): Form 2
Slurry output, solid form by PXRD ([3]; acetonitrile/water, Aw 0.75, RT, 2 weeks): Form 2
Slurry output, solid form by PXRD ([3]; acetonitrile/water, Aw 0.9, 5° C., 2 weeks): Form 2
Slurry output, solid form by PXRD ([3]; acetonitrile/water, Aw 0.9, 40° C., 2 weeks): Form 2
Slurry output, solid form by PXRD ([3]; acetonitrile/water, Aw 0.9, RT, 2 weeks): Form 2
Slurry output, solid form by PXRD ([3]; methanol, Aw 0, 5° C., 2 weeks): Form 1
Slurry output, solid form by PXRD ([3]; methanol, Aw 0, RT, 2 weeks): Form 1
Slurry output, solid form by PXRD ([3]; methanol/water, Aw 0.1, 5° C., 2 weeks): Form 2
Slurry output, solid form by PXRD ([3]; methanol/water, Aw 0.1, 40° C., 2 weeks): solvate
Slurry output, solid form by PXRD ([3]; methanol/water, Aw 0.1, 40° C., 2 weeks, listed as Form 1): solvated material
Slurry output, solid form by PXRD ([3]; methanol/water, Aw 0.1, RT, 2 weeks): Form 2
Slurry output, solid form by PXRD ([3]; methanol/water, Aw 0.3, 5° C., 2 weeks): Form 2
Slurry output, solid form by PXRD ([3]; methanol/water, Aw 0.3, 40° C., 2 weeks): solvate
Slurry output, solid form by PXRD ([3]; methanol/water, Aw 0.3, 40° C., 2 weeks, listed as Form 1): solvated material
Slurry output, solid form by PXRD ([3]; methanol/water, Aw 0.3, RT, 2 weeks): Form 2
Slurry output, solid form by PXRD ([3]; methanol/water, Aw 0.5, 5° C., 2 weeks): Form 2
Slurry output, solid form by PXRD ([3]; methanol/water, Aw 0.5, 40° C., 2 weeks): Form 2
Slurry output, solid form by PXRD ([3]; methanol/water, Aw 0.5, RT, 2 weeks): Form 2
Slurry output, solid form by PXRD ([3]; methanol/water, Aw 0.75, 5° C., 2 weeks): Form 2
Slurry output, solid form by PXRD ([3]; methanol/water, Aw 0.75, 40° C., 2 weeks): Form 2
Slurry output, solid form by PXRD ([3]; methanol/water, Aw 0.75, RT, 2 weeks): Form 2
Slurry output, solid form by PXRD ([3]; methanol/water, Aw 0.9, 5° C., 2 weeks): Form 2
Slurry output, solid form by PXRD ([3]; methanol/water, Aw 0.9, 40° C., 2 weeks): Form 2
Slurry output, solid form by PXRD ([3]; methanol/water, Aw 0.9, RT, 2 weeks): Form 2
Slurry output, solid form by PXRD ([4]; acetonitrile, Aw 0, RT): Form 1
Slurry output, solid form by PXRD ([4]; methanol, Aw 0, 40° C.): Form 1
Output Solid Form ([5]; binary mixture with stearic acid): Form 2
Solid form changes by PXRD (summary) ([5]; mixtures containing magnesium stearate): form changes after 2 weeks
Solid form changes by PXRD (summary) ([5]; mixtures containing stearic acid): form changes after 1 week
Output Solid Form ([5]; tertiary mixture with stearic acid, lactose): Form 2
Output Solid Form ([5]; tertiary mixture with stearic acid, mannitol): Form 2
Physical stability of representative drug product formulation relative to the acetic acid solvate of lorlatinib free base ([6]; drug product formulation): superior physical stability
impurity (solid phase impurity), physical stability of drug product ([6]; 50° C./75% RH, 2 weeks): ~10% impurity
impurity (solid phase impurity), physical stability of drug product ([6]; 70° C./10% RH, 3 weeks): ~10% impurity
impurity (solid phase impurity), physical stability of drug product ([6]; 70° C./40% RH, 2 weeks): ~10% impurity
impurity (solid phase impurity), physical stability of drug product ([6]; 70° C./75% RH, 1 week): ~10% impurity
SMILES: C[C@H]1Oc2cc(cnc2N)-c2c(nn(C)c2C#N)CN(C)C(=O)c2ccc(F)cc21 [anhydrous lorlatinib maleate (Form 1), Anhydrous (10R)-7-amino-12-fluoro-2,10,16-trimethyl-15-oxo-10,15,16,17-tetrahydro-2H-8,4-(metheno)pyrazolo[4,3-h][2,5,11]benzoxadiazacyclotetradecine-3-carbonitrile (PF-06463922) Maleate (Form 1)]
Solid Form (accelerated stability, PXRD) ([1]; 25° C./60% RH without desiccation, 3 months): Multiple new PXRD peaks were observed, which were consistent with Form 2
Form conversion in slurry (summary) ([3]; anhydrous conditions (Aw=0)): no conversion to the hydrate Form 2 detected
Form conversion in slurry (summary) ([3]; water activities 0.1 to 0.9, temperatures from 5° C. to 40° C., 2 weeks): converts to the thermodynamically more stable lorlatinib maleate hydrate (Form 2)
